Measurements published in article PMC3444172 (The Journal of organic chemistry, 2012).
“Also recorded” adds a separate entry of the source. Like-named read-outs stand apart in the source and are kept apart here.

Experiments:
Type in all cases: biochemical
[1] = molecular target: T1, S. pombe lumazine synthase (recombinant homopentameric) (Schizosaccharomyces pombe, UniProt Q9UUB1); assay: Kinetic assay of lumazine synthase inhibitors, S. pombe enzyme; conditions: for Kcat (rate constant ES → E + P) / Kis (ES + I ⇌ ESI) / Ks (substrate dissociation constant, E + S ⇌ ES): substrate 2 constant, substrate 1 varied, Tris·HCl pH 7.0
T1 sequence (Q9UUB1 1-159): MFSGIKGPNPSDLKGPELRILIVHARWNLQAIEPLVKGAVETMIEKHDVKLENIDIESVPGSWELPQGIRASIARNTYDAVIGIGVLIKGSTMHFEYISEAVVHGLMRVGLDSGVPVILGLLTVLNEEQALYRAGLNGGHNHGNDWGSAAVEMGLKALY

[2] = molecular target: E. coli riboflavin synthase (recombinant) (Escherichia coli, UniProt P0AFU8); assay: Kinetic assay of riboflavin synthase inhibitors, E. coli enzyme; conditions: for Kcat (rate constant ES → E + P) / Ks (substrate dissociation constant, E + S ⇌ ES) / Kis (ES + I ⇌ ESI): substrate 3 varied, Tris·HCl pH 7.0
[3] = molecular target: M. tuberculosis riboflavin synthase (recombinant) (Mycobacterium tuberculosis, UniProt P9WK35); assay: Kinetic assay of riboflavin synthase inhibitors, M. tuberculosis enzyme
[4] = molecular target: M. tuberculosis lumazine synthase (recombinant homopentameric) (Mycobacterium tuberculosis, UniProt P9WHE9); conditions: for inhibitory activity in words: lumazine synthase inhibition, qualitative statement
[5] = substrate 3 varied, Tris·HCl pH 7.0
[6] = substrate 2 constant, substrate 1 varied, Tris·HCl pH 7.0

Chain of M. tuberculosis lumazine synthase (recombinant homopentameric) (P9WHE9 whole entry): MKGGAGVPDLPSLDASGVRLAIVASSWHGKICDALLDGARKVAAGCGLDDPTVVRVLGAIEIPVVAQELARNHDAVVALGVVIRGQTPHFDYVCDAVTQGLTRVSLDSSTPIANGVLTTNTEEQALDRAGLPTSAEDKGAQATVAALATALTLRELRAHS
Chain of M. tuberculosis riboflavin synthase (recombinant) (P9WK35 whole entry): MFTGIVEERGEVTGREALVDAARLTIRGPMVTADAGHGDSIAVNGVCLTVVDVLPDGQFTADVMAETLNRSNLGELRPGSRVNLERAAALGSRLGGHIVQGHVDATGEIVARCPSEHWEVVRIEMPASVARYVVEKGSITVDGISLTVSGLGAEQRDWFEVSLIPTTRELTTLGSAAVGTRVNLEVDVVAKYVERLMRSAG
Chain of E. coli riboflavin synthase (recombinant) (P0AFU8 whole entry): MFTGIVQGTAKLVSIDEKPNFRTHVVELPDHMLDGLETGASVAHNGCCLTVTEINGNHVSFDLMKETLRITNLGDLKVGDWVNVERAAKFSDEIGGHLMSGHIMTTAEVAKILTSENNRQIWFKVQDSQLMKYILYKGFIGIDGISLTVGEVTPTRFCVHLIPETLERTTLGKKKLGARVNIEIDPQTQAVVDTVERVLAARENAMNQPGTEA

Row | SMILES | Mechanism of inhibition [1] | Kcat (rate constant ES → E + P) [1] | Kis (ES + I ⇌ ESI) [1] | Ks (substrate dissociation constant, E + S ⇌ ES) [1] | Mechanism of inhibition [2] | Kcat (rate constant ES → E + P) [2] | Ks (substrate dissociation constant, E + S ⇌ ES) [2] | Mechanism of inhibition [3] | Kcat (rate constant ES → E + P) [3, 5] | Kis (ES + I ⇌ ESI) [3, 5] | Ks (substrate dissociation constant, E + S ⇌ ES) [3, 5] | Mechanism of inhibition [4] | Kcat (rate constant ES → E + P) ([4]; pH 7) | Ks (substrate dissociation constant, E + S ⇌ ES) [4, 6] | Kis (ES + I ⇌ ESI) [2] | Kis (ES + I ⇌ ESI) [4, 6] | inhibitory activity in words [4] | Ki (E + I ⇌ EI) [4, 6] | Kcat (rate constant ES → E + P) [4, 6] | Ki (E + I ⇌ EI) [3, 5]
1 | O=c1[nH]c(OC[C@H](O)[C@H](O)[C@H](O)CO)c([N+](=O)[O-])c(=O)[nH]1 [Compound 22, 5-Nitro-6-((2S,3R,4R)-2,3,4,5-tetrahydroxypentyloxy)pyrimidine-2,4(1H,3H)-dione] | Partial | 1.4 ± 0.0 m^−1 | 110 ± 40 µM | 1.4 ± 0.1 µM | Competitive | 3.3 ± 0.01 m^−1 | 2.6 ± 0.2 µM | Partial | 0.26 ± 0.01 m^−1 | 26 ± 6 µM | 7.1 ± 0.7 µM | Competitive | 0.19 ± 0.00 m^−1 | 25 ± 2 µM | – | – | – | – | – | –
2 | Nc1c(OC[C@@H](O)[C@H](O)[C@@H](O)CO)[nH]c(=O)[nH]c1=O [Compound 29, 5-Amino-6-((2R,3R,4S)-2,3,4,5-tetrahydroxypentyloxy)pyrimidine-2,4(1H,3H)-dione] | Partial | 1.3 ± 0.0 m^−1 | 43 ± 8 µM | 1.2 ± 0.1 µM | Uncompetitive | 3.2 ± 0.1 m^−1 | 2.5 ± 0.1 µM | Uncompetitive | 0.25 ± 0.01 m^−1 | 577 ± 121 µM | 5.6 ± 0.5 µM | Uncompetitive | 0.18 ± 0.01 m^−1 | 27 ± 2 µM | >1000 µM | >1000 µM | – | – | – | –
3 | CCOC(=O)C(=O)Nc1c(OC[C@H](O)[C@H](O)[C@H](O)CO)[nH]c(=O)[nH]c1=O [Compound 36, Ethyl 2-(2,4-dioxo-6-((2S,3R,4R)-2,3,4,5-tetrahydroxypentyloxy)1,2,3,4-tetrahydropyrimidin-5-ylamino)-2-oxoacetate] | Uncompetitive | 2.7 ± 0.1 m^−1 | >1000 µM | 6.4 ± 0.6 µM | Uncompetitive | 5.8 ± 0.2 m^−1 | 3.0 ± 0.3 µM | Uncompetitive | 0.25 ± 0.01 m^−1 | >1000 µM | 5.0 ± 0.5 µM | Uncompetitive | 0.26 ± 0.01 m^−1 | 34 ± 5 µM | >1000 µM | >1000 µM | completely inactive; also recorded: totally inactive | > 1 mM | – | –
4 | CC(C)C(=O)Nc1c(OC[C@H](O)[C@H](O)[C@H](O)CO)[nH]c(=O)[nH]c1=O [Compound 40] | – | – | – | – | – | – | – | Uncompetitive | 0.84 ± 0.02 m^−1 | 698 ± 108 µM | 9.3 ± 0.6 µM | Uncompetitive | 0.59 ± 0.01 m^−1 | 16 ± 1 µM | – | 766 ± 97 µM | totally inactive | – | – | –
5 | CCC(=O)Nc1c(OC[C@H](O)[C@H](O)[C@H](O)CO)[nH]c(=O)[nH]c1=O [Compound 43] | – | – | – | – | – | – | – | Uncompetitive | 0.21 ± 0.00 m^−1 | >1000 µM | 4.4 ± 0.2 µM | Uncompetitive | 0.39 ± 0.00 m^−1 | 18 ± 2 µM | – | – | totally inactive | – | – | –
6 | C=C(C)C(=O)Nc1c(OC[C@H](O)[C@H](O)[C@H](O)CO)[nH]c(=O)[nH]c1=O [Compound 46] | – | – | – | – | – | – | – | Uncompetitive | 0.58 ± 0.01 m^−1 | >1000 µM | 9.2 ± 0.6 µM | Uncompetitive | 0.57 ± 0.01 m^−1 | 12 ± 1 µM | – | >1000 µM | – | > 1 mM | – | –
7 | CCC(=O)Nc1c(SC[C@H](O)[C@H](O)[C@H](O)CO)[nH]c(=O)[nH]c1=O [Compound 49] | – | – | – | – | – | – | – | Uncompetitive | 0.76 ± 0.01 m^−1 | > 1000 µM | 10 ± 1 µM | Competitive | 0.65 ± 0.01 m^−1 | 11 ± 1 µM | – | 128 µM | – | – | – | –
8 | C=C(C)C(=O)Nc1c(SC[C@H](O)[C@H](O)[C@H](O)CO)[nH]c(=O)[nH]c1=O [Compound 51] | – | – | – | – | – | – | – | Uncompetitive | 0.84 ± 0.01 m^−1 | > 1000 µM | 10 ± 0 µM | Competitive | 0.92 ± 0.03 m^−1 | 17 ± 1 µM | – | – | – | – | – | –
9 | C=C(C)C(=O)Nc1c(NC[C@H](O)[C@H](O)[C@H](O)CO)[nH]c(=O)[nH]c1=O [Compound 56, N-[2,4-Dioxo-6-((2S,3S,4R)-2,3,4,5-tetrahydroxypentylamino]-1,2,3,4-tetrahydropyrimidin-5-yl)methacrylamide] | – | – | – | – | – | – | – | Partial | 0.57 ± 0.02 m^−1 | 35 ± 14 µM | 7.0 ± 0.6 µM | Uncompetitive | – | 19 ± 2 µM | – | > 1000 µM | inactive | > 1 mM | 0.52 ± 0.02 m^−1 | –
10 | CC(Cl)C(=O)Nc1c(NC[C@H](O)[C@H](O)[C@H](O)CO)[nH]c(=O)[nH]c1=O (stereo partly drawn) [Compound 60, 2-Chloro-N-(2,4-dioxo-6-((2S,3S,4R)-2,3,4,5-tetrahydroxypentylamino)1,2,3,4-tetrahydropyrimidin-5-yl)propanamide] | – | – | – | – | – | – | – | Competitive | 0.72 ± 0.01 m^−1 | – | 11 ± 1 µM | Competitive | – | 17 ± 1 µM | – | – | – | – | 0.85 ± 0.03 m^−1 | –
11 | O=C(CCl)Nc1c(NC[C@H](O)[C@H](O)[C@H](O)CO)[nH]c(=O)[nH]c1=O [Compound 63, 2-Chloro-N-(2,4-dioxo-6-((2S,3S,4R)-2,3,4,5-tetrahydroxypentylamino)-1,2,3,4-tetrahydropyrimidin-5-yl)acetamide] | – | – | – | – | – | – | – | Uncompetitive | 0.66 ± 0.01 m^−1 | > 1000 µM | 8.6 ± 0.4 µM | Partial | – | 24 ± 2 µM | – | 53 ± 12 µM | – | – | 0.62 ± 0.02 m^−1 | –
12 | O=C(CC(F)(F)F)Nc1c(NC[C@H](O)[C@H](O)[C@H](O)CO)[nH]c(=O)[nH]c1=O [Compound 66, N-(2,4-Dioxo-6-((2S,3S,4R)-2,3,4,5-tetrahydroxypentylamino)-1,2,3,4-tetrahydropyrimidin-5-yl)-3,3,3-trifluoropropanamide] | – | – | – | – | – | – | – | Uncompetitive | 0.18 ± 0.1 m^−1 | > 1000 µM | 6.6 ± 0.3 µM | Partial | – | 20 ± 1 µM | – | 309 ± 125 µM | – | – | 0.76 ± 0.02 m^−1 | –
13 | CC1(O)C(=O)Nc2c([nH]c(=O)[nH]c2=O)N1C[C@H](O)[C@H](O)[C@H](O)CO (stereo partly drawn) [Compound 69, 7-Hydroxy-7-methyl-8-[(2S,3S,4R)-2,3,4,5-tetrahydroxypentyl)-7,8-dihydropteridin-2,4,6(1H, 3H, 5H)-trione] | – | – | – | – | – | – | – | Competitive | 0.67 ± 0.02 m^−1 | – | 8.9 ± 0.7 µM | Competitive | – | 19 ± 2 µM | – | – | – | – | 0.59 ± 0.02 m^−1 | submicromolar
14 | C=C(C)C(=O)Nc1c(Cl)[nH]c(=O)[nH]c1=O [Compound 78, N-(6-Chloro-2,4-dioxo-1,2,3,4-tetrahydropyrimidin-5-yl)methacrylamide] | – | – | – | – | – | – | – | Uncompetitive | 0.58 ± 0.4 m^−1 | 694 ± 88 µM | 8.6 ± 0.4 µM | Uncompetitive | – | 18 ± 2 µM | – | >1000 µM | – | – | 0.53 ± 0.03 m^−1 | –
